In patent publication US4849405A, “Oral insulin and a method of making the same” (priority 1986, dated 1989):

Test system: white laboratory rats
Test: Blood glucose level in rats before and three hours after administration of oral insulin preparation
Assay type: in vivo
Settings: rat; preparation containing 5 units of bovine insulin; three hours after administration
Procedure: Two white laboratory rats, weighing 177 and 197 grams, respectively, were used in this experiment. One rat was administered a preparation of oral insulin according to the present invention containing 5 units of insulin; a formulation of the oral insulin according to the present invention containing 10 units of bovine insulin was administered to the second rat. Blood samples were drawn from each animal before and three hours after administration of the oral insulin preparation. The results given below are expressed as the percentage of the pre-experiment blood glucose level.
One white laboratory rat weighing 181 grams received a non-encapsulated preparation containing 5 units of free bovine insulin. This animal served as the control. After three hours, blood glucose level was 98.7% of the pre-experiment blood glucose level.

For “free bovine insulin: non-encapsulated preparation containing 5 units of free bovine insulin; served as the control”, the “blood glucose level as percentage of the pre-experiment blood glucose level” value was 98.7%.
